Series [1] has as its system SCC7 tumor-bearing nude mice. Nature of the series: Biodistribution by NIR fluorescence imaging in tumor-bearing mice. The class given is in vivo. The procedure:
Animal experiments were conducted under protocols approved by Animal Care and Use Committee (CC/ACUCC) of Hong Kong Polytechnic University. Suspension of 4×10^6 SCC7 cells in PBS (80 μL) was injected to subcutaneous sites in athymic nude mice (seven weeks old, female, 20-24 g). When the tumor size (in the right leg region) reached average size of 120 mm^3, mice were randomly allocated into three groups, (a) injecting free ICG solution into the tail veins of mice; (b) injecting ICG labelled GVs solution into the tail veins of mice; and (c) injecting ICG labelled PH-GVs solution into the tail veins of mice. Fluorescent imagines were acquired at 0, 0.5, 1, 2, 4, 8, 12, 24 and 48 h after injection using IVIS Lumina II (Caliper Life Sciences, USA; Excitation Filter: 780 nm, Emission Filter: 800 nm).
At the time of highest accumulation after one-dose injection, SCC7 tumors and normal organs (hearts, livers, spleens, kidneys, lungs and muscles) were collected for acquisition of Fluorescent signal intensity.

For series [2], the system named is MCF-7 cells. Nature of the series: PDT cytotoxicity by CCK-8 assay. The format is cell-based, Human. As to the method: (§1) Photodynamic therapy setup: Cells were exposed to laser with the power of 100 mW/cm^2 for 5 min. The light source with a wavelength of 396 nm that was generated by an optical fiber was collimated to an aperture and irradiated to the 35 mm cell culture dish. The position of the cell culture plate was manually controlled by a dual-axis electric linear platform. After the treatment, cells were cultured in fresh medium for 4 h and then prepared for different analyses.
Cell culture: Human breast cancer cell line (MCF-7) was obtained from the Shanghai Cell Bank. […]
Cell viability test: In the pilot study, MCF-7 cells were divided randomly into eight groups: (1) control, (2) laser alone, (3) PpIX alone, (4) PpIX plus laser (PDT), (5) PpIX+GVs+laser (PDT+GVs), (6) PpIX+oxyGVs+laser (PDT+oxy-GVs), (7) GVs+laser, and (8) oxyGVs+laser. […] Cell viability at the different time points following PDT was determined using a Cell Counting Kit-8 (Sigma-Aldrich) according to the manufacturer's instructions. […] Cytotoxicity was determined by adding 10 μl CCK-8 reagent per well for 1 h at 37° C. in 5% CO2. The absorbance of the treated samples against a blank control was measured at 450 nm as the detection wavelength. The viability of treated cells was determined by comparing to the untreated ones in the control group.

For series [3], the system named is MCF-7 cells. Nature of the series: Cell apoptosis after PDT by Annexin V/PI flow cytometry. The class given is cell-based, Human. As to conditions: PDT (PpIX plus laser). As to the method:
as §1
Cell apoptosis test: Cells were seeded at a density of 5×10^5 cells in 6-cm dishes and incubated for 24 h. Alexa Fluor 488 Annexin V/Dead Cell Apoptosis Kit (Thermo Fisher Scientific) was used to measure cell apoptosis according to the manufacturer's instructions. Cells were collected and incubated with 5 μL of the annexin V conjugate and 1 μL of the PI working solution at room temperature for 15 min. The cells were analyzed by FACS Calibur flow cytometer and BD Accuri C6 Software (Becton-Dickinson, USA).
For orientation: In flow cytometry, cells or beads pass a laser one at a time.

The nature of series [4]: Singlet oxygen generation in cell free system under ultrasound (SOSG). As to conditions: alone; PpIX 10 μM, GVs 2 nM. The procedure:
SDT setup: 1 MHz planar ultrasound transducer with diameter of 5 cm (Olympus, Tokyo, Japan) was used for sonification in this study. Function generator (AFG 3251, Tektronix Company, Oregon, USA) and power amplifier (Model 500 A250 CAR; Souderton, Pa., USA) were used to generate ultrasonic pulses. Cells were exposed to ultrasound 10 cm away from transducer coupled by degassed deionized water at 25° C. Acoustic intensity and field were characterized by hydrophone (HGL-200; Onda, Sunnyvale, Calif., USA). The spatial peak temporal average intensity was measured to be 8 W/cm^2; the duty cycle was 20% with fixed pulse repetition frequency (PRF) of 1000 Hz. The overall sonification duration was 5 min. The temperature increase in cell-culture experiment solution was controlled within 2.5° C. After the ultrasound treatment, cells were cultured in fresh medium for 4 h and then prepared for different analyses.
Generation of singlet oxygen: SOSG (10 μM) was used to detect singlet oxygen generation. The solution was exposed to ultrasound and protected from light during the exposure time. The fluorescence intensity of SOSG was measured by microplate reader at an excitation wavelength of 488 nm and an emission wavelength of 530 nm.

For orientation: cell viability means the share of living cells, or the viability signal relative to a control. Low readings indicate a greater loss of cells, high ones better survival.

On to `CC1(C)C(/C=C/C=C/C=C/C=C2\N(CCCCS(=O)(=O)[O-])c3ccc4ccccc4c3C2(C)C)=[N+](CCCCS(=O)(=O)[O-])c2ccc3ccccc3c21.[Na+]` [ICG], for which, in series [1] (after intravenous injection, PH-GVs at 8 h), the “fluorescence at tumor sites (in vivo imaging)” value is “no strong fluorescence signal”. In addition, the “fluorescence signals in the normal organs (in vivo imaging)” value in series [1] (early time points (0.5-2 h) for ICG/GVs, up to 8 h for PH-GVs) is reported as “considerable fluorescence signals”.

In the case of `C=CC1=C(C)c2cc3[nH]c(cc4[nH]c(cc5nc(cc1n2)C(C)=C5C=C)c(C)c4CCC(=O)O)c(CCC(=O)O)c3C` [PpIX], the “effects on cell viability” value in series [2] (PpIX alone, no laser) is listed as “no effects”. Further, the cell viability in series [2] (PpIX+laser (ALA-PDT), 4 h following PDT) stood at 75%. Moreover, in series [3], the viable cells is reported as 74.7%. For the same molecule, the “SOSG fluorescence intensity before and after ultrasound treatment” value in series [4] was “increased significantly”.

Values taken from patent US20220257503A1, “Surface Modified Gas Vesicles, Preparation and Applications thereof” (THE HONG KONG POLYTECHNIC UNIVERSITY, priority 2019, published 2022).
